Each block holds one compound with its values, some of them ahead of it.
Target: T1, mouse Tas2r108 (Mus musculus, UniProt Q9JKT3)
T1 construct: expressed in transfected cells; host or cells: HEK293T-Gα16gust44
T1 sequence (Q9JKT3 1-297): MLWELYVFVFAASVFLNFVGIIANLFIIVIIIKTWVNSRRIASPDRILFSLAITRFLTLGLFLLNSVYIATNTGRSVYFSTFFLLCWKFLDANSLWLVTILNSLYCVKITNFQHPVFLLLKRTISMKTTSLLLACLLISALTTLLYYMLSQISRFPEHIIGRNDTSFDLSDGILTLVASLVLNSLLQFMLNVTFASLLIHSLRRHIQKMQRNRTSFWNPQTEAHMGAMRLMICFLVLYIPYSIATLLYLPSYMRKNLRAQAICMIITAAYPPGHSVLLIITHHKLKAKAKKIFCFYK
Assay: Calcium imaging assay (FLIPR), HEK293T-Gα16gust44 cells transfected with mouse Tas2r108
Type: cell-based
Outline: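 Fluo-4 calcium responses; ΔF/F corrected for mock transfection and buffer control; triplicate independent dose-response runs; p < 0.01 threshold.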

SMILES: C[C@H](CCC(=O)NCCS(=O)(=O)O)[C@H]1CC[C@H]2[C@@H]3CC[C@@H]4C[C@H](O)CC[C@]4(C)[C@H]3CC[C@]12C [Taurolithocholic Acid, taurolithocholic acid]
- RLU (Time 0 s): 0 RLU
- RLU (Time 2 s): 0.6757 RLU
- RLU (Time 4 s): -5.736 RLU
- RLU (Time 6 s): 6.046 RLU
- RLU (Time 8 s): 39.2838 RLU
- RLU (Time 12 s): 8.803 RLU
- RLU (Time 14 s): 5.215 RLU
- RLU (Time 16 s): -9.6707 RLU
- RLU (Time 18 s): -10.699 RLU
- RLU (Time 18.781 s): 51.1832 RLU
- RLU (Time 20.781 s): 31.0896 RLU
- RLU (Time 22.781 s): 17.366 RLU
- RLU (Time 24.781 s): 13.0906 RLU
- RLU (Time 26.781 s): 51.6272 RLU
- RLU (Time 28.781 s): 63.3328 RLU
- RLU (Time 30.781 s): 109.429 RLU
- RLU (Time 32.781 s): 151.07 RLU
- RLU (Time 34.781 s): 184.905 RLU
- RLU (Time 36.781 s): 210.816 RLU
- RLU (Time 38.781 s): 242.967 RLU
- RLU (Time 40.781 s): 265.916 RLU
- RLU (Time 42.781 s): 261.677 RLU
- RLU (Time 44.781 s): 303.058 RLU
- RLU (Time 46.781 s): 324.099 RLU
- RLU (Time 48.781 s): 311.969 RLU
- RLU (Time 50.781 s): 342.074 RLU
- RLU (Time 52.781 s): 343.185 RLU
- RLU (Time 54.781 s): 378.711 RLU
- RLU (Time 56.781 s): 389.7 RLU
- RLU (Time 58.781 s): 401.227 RLU
- RLU (Time 60.781 s): 410.325 RLU
- RLU (Time 62.781 s): 416.305 RLU
- RLU (Time 64.781 s): 417.574 RLU
- RLU (Time 66.781 s): 434.462 RLU
- RLU (Time 68.781 s): 456.387 RLU
- RLU (Time 70.781 s): 443.293 RLU
- RLU (Time 72.781 s): 455.898 RLU
- RLU (Time 74.781 s): 461.633 RLU
- RLU (Time 76.781 s): 455.071 RLU
- RLU (Time 78.781 s): 466.188 RLU
- RLU (Time 80.781 s): 477.183 RLU
- RLU (Time 82.781 s): 506.736 RLU
- RLU (Time 84.781 s): 503.228 RLU
- RLU (Time 86.781 s): 489.189 RLU
- RLU (Time 88.781 s): 473.872 RLU
- RLU (Time 90.781 s): 497.168 RLU
- RLU (Time 92.781 s): 472.229 RLU
- RLU (Time 94.781 s): 481.838 RLU
- RLU (Time 96.781 s): 467.082 RLU
- RLU (Time 98.781 s): 510.678 RLU
- RLU (Time 100.781 s): 498.898 RLU
- RLU (Time 102.781 s): 493.381 RLU
- RLU (Time 104.781 s): 508.478 RLU
- RLU (Time 106.781 s): 488.526 RLU
- RLU (Time 108.781 s): 487.641 RLU
- RLU (Time 110.781 s): 528.304 RLU
- RLU (Time 112.781 s): 500.584 RLU
- RLU (Time 114.781 s): 484.964 RLU
- RLU (Time 116.781 s): 486.198 RLU
- RLU (Time 118.781 s): 494.318 RLU
- RLU (Time 120.781 s): 504.713 RLU
- RLU (Time 122.781 s): 501.616 RLU
- RLU (Time 124.781 s): 482.612 RLU
- RLU (Time 126.781 s): 503.591 RLU
- RLU (Time 128.781 s): 486.957 RLU
- RLU (Time 130.781 s): 500.459 RLU
- RLU (Time 132.781 s): 472.597 RLU
- RLU (Time 134.781 s): 498.526 RLU
- RLU (Time 136.781 s): 501.497 RLU
- RLU (Time 137.547 s): 471.412 RLU
- RLU (Time 143.547 s): 482.177 RLU
- RLU (Time 149.547 s): 466.386 RLU
- RLU (Time 155.547 s): 451.788 RLU
- RLU (Time 161.547 s): 449.152 RLU
- RLU (Time 167.547 s): 425.382 RLU
- RLU (Time 173.547 s): 442.283 RLU
- RLU (Time 179.547 s): 425.607 RLU
- RLU (Time 185.547 s): 410.079 RLU
- RLU (Time 191.547 s): 397.165 RLU
- RLU (Time 197.547 s): 392.705 RLU
- RLU (Time 203.547 s): 382.875 RLU
- RLU (Time 209.547 s): 387.748 RLU
- RLU (Time 215.547 s): 381.118 RLU
- RLU (Time 221.547 s): 374.673 RLU
- RLU (Time 227.547 s): 340.738 RLU
- RLU (Time 233.547 s): 357.908 RLU
- RLU (Time 239.547 s): 329.058 RLU
- RLU (Time 245.547 s): 312.353 RLU
- RLU (Time 293.547 s): 280.532 RLU
- RLU (Time 299.547 s): 302.8 RLU
- Activation threshold concentration Tas2r108 (p < 0.01 vs empty vector): 1 µM
- RLU (time 305.547 s): 271.906 RLU
- RLU (time 311.547 s): 293.129 RLU
- RLU (time 317.547 s): 296.196 RLU
- RLU (time 323.547 s): 325.759 RLU
- RLU (time 329.547 s): 278.402 RLU
- RLU (time 335.547 s): 309.885 RLU
- RLU (time 341.547 s): 315.03 RLU
- RLU (time 347.547 s): 300.184 RLU
- RLU (time 353.547 s): 294.817 RLU
- RLU (time 359.547 s): 274.663 RLU

- Receptor response Tas2r108 (screening): does not respond
SMILES: C[C@H](CCC(=O)O)[C@H]1CC[C@H]2[C@@H]3[C@@H](O)C[C@@H]4C[C@H](O)CC[C@]4(C)[C@H]3CC[C@]12C [Ursodeoxycholic Acid, ursodeoxycholic acid]
